# Reference: patent US6939850B2, “Altered human interleukin-1β convertase (ICE), NEDD-2, and C. elegans ced-3 polypeptides and uses therefor” (Massachusetts Institute of Technology, priority 1992, dated 2005)
# Columns and labels:
# [1] = tested on: undifferentiated neurons and precursor cells in the neural tube; experiment: Cell death in the early neural tube in vivo; parameters: species or system chick
# lumbar motoneurons = experiment: Motoneuron death following limb bud removal; assay type: in vivo, chick
# Description: Peptides. Two peptide inhibitors of ICE, Acetyl-Tyr-Val-Ala-Asp-aldehyde (Ac-YVAD-CHO) and Acetyl-Tyr-Val-Ala-Asp-chloromethylketone (Ac-YVAD-CMK) and two control peptide inhibitors, Acetyl-Leu-Leu-Arg-aldehyde (Ac-LLR-CHO; Leupeptin) and n-tosyl-Lys-chloromethyl-ketone (Tos-Lys-CMK) were synthesized by Bachem Biosciences (King of Prussia, Pa.) and shown by thin layer chromatography and HPLC to be greater than 98% pure. […] Methods for administration of peptides to examine effects on naturally occurring motoneuron cell death in vivo. Although cell death of lumbar motoneurons occurs between E6 and E12, the peak period of death (i.e., the greatest number of pyknotic cells) occurs on E8 (Oppenheim et al., J Comp. Neurol. 177:87-112 (1978)). For these experiments, embryos were given a single administration of an agent on E8 0 hr and sacrificed 15 hours later. […] Ac-YVAD-CMK and Tos-Lys-CMK were administered in a solution of DMSO/BSA, whereas Ac-YVAD-CHO and leupeptin (Sigma) were in BSA alone. The solutions (50-100 μl) were dropped onto the highly vascularized chorioallantoic membrane through a window in the shell. The control groups included both DMSO and BSA or vehicle alone. Embryos were killed and staged by the Hamburger-Hamilton series (Hamburger and Hamilton, J. Morph. 88:49-92 (1951)). The thoraco-lumbar spinal cord was dissected, fixed in Camoys or Bouins fixative, processed for paraffin histology, serially sectioned (10-12 μm) and stained with either thionin or hematoxylin and eosin. Pyknotic motoneurons were identified based on criteria previously described (Chu-Wang and Oppenheim, J. Comp. Neurol. 177:33-58 (1978); Clarke and Oppenheim In Methods in Cell Biology Series; Cell Death; eds: Schwartz and Osborne. Academic Press. New York, N.Y. In press.) and were counted in every 10th or 20th section through the entire lumbar enlargement. The total number of pyknotic cells were then estimated by multiplying these values by 10 or 20. All cell counts were performed by individuals blinded with regard to drug treatment of the embryos. Methods for limb bud removal experiments. A unilateral limb bud removal was performed on E2 as described previously (Oppenheim et al., J. Comp. Neurol. 177:87-112 (1978)). Because induced cell death following limb removal begins on E5 (before that there is no difference in the number of motoneurons between the operated or unoperated sides) embryos were given one treatment of Ac-YVAD-CHO (40 μg) or BSA (control) at E5-0 hr and another at E5-12 hours (total peptide administered was 80 μg). Animals were killed at E6-0 hr. Methods were the same as described above except the section thickness was 6-8 μm (see Method for Administration of Peptides, above). Methods for limb bud interdigital regions. Embryos were treated with 100 μg of peptide or vehicle in 50 μl on E6.0 and on E7.0 (total 200 μg) as described above (Chu-Wang and Oppenheim, J. Comp. Neurol. 177:33-58 (1978); Clarke and Oppenheim In Methods in Cell Biology Series; Cell Death; eds: Schwartz and Osborne. Academic Press. New York, N.Y. In press.) and killed at E7.5. The footpads were placed in Bouin's fixative and processed as described above (see Method of Limb Bud Removal, above). Pyknotic cells in all interdigital regions were counted in every 10th section (6-8 μm) of serial transverse sections through the entire footpad.
# cervical motoneurons = experiment: Cervical motoneuron cell death in vivo; parameters: species or system chick
# Description: The ability of the ICE inhibitors to block cell death in two classes of neurons whose naturally occurring death appears to be independent of target interaction was also studied. First, motoneurons in the cervical spinal cord undergo PCD between E4 and E5, with maximum levels occurring at E4.5.
# ICE = molecular target: T1, ICE (Homo sapiens, UniProt P29466); details: protease activity of ICE; cited from earlier work
# T1 sequence (P29466 120-297): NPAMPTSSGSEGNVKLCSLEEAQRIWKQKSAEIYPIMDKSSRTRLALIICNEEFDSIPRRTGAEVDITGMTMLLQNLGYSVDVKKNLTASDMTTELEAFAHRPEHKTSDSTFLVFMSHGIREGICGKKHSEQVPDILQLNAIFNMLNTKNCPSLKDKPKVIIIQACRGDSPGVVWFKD
# T1 sequence (P29466 317-404): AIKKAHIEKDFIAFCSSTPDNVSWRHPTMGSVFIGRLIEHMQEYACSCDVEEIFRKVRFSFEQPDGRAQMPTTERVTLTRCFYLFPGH
# [2] = limb bud removal on E2, 40 μg at E5-0 hr and E5-12 hours, mean ±SD
# [3] = unoperated side, 40 μg at E5-0 hr and E5-12 hours, mean ±SD
substance,measurement,setting,value
Acetyl-Tyr-Val-Ala-Asp-aldehyde [Ac-YVAD-CHO],survival promoting effects on floorplate or dorsal spinal cord cells,[1]; compared to control animals,no survival promoting effects
same,"Pyknotic Cells in the Early Neural Tube, Dorsal Spinal Cord",[1]; mean ±SD,1.350 ± 0.297
same,"Pyknotic Cells in the Early Neural Tube, Floor Plate",[1]; mean ±SD,1.115 ± 0.246
same,survival promoting effect,lumbar motoneurons; following limb bud removal,no survival promoting effect
same,"Healthy Motoneurons (lumbar) on E6, Ipsilateral",lumbar motoneurons; [2],"11,109 ± 1592"
same,"Pyknotic Motoneurons (lumbar) on E6, Ipsilateral",lumbar motoneurons; [2],317 ± 89
same,"Healthy Motoneurons (lumbar) on E6, Contralateral",lumbar motoneurons; [3],"17,914 ± 1733"
same,"Pyknotic Motoneurons (lumbar) on E6, Contralateral",lumbar motoneurons; [3],67 ± 13
same,survival promoting effects on cervical motoneurons,cervical motoneurons; compared to control or Ac-LLR-CHO treated animals,no survival promoting effects
same,Pyknotic Cervical Motoneurons on E4.5,cervical motoneurons; mean ±SD,25.9 ± 3.4
same,Ki,ICE,0.76 nM
